Series [1] concerns the target T1, Protein kinase C epsilon type (Homo sapiens, UniProt Q02156).
T1 sequence (Q02156 whole entry): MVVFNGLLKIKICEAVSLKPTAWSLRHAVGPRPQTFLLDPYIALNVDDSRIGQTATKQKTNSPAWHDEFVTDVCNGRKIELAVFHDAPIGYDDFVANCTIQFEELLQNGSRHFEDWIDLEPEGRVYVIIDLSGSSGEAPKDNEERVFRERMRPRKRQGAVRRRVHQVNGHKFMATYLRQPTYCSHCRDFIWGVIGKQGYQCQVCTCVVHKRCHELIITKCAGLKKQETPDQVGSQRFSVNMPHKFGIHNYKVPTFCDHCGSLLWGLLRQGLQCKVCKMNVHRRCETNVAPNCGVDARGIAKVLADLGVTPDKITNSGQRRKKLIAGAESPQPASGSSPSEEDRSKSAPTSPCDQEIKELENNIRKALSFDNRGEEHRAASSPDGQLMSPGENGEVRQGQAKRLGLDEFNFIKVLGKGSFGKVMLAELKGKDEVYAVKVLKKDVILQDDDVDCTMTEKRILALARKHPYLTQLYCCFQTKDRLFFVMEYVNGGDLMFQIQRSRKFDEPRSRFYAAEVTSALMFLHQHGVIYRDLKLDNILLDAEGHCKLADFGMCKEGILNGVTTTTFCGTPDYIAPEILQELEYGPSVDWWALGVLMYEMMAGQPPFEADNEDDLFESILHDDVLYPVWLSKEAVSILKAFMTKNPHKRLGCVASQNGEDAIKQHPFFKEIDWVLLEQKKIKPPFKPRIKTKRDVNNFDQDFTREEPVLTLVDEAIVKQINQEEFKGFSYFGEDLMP
In words: Inhibition of PKCepsilon.

Series [2] deals with Protein kinase C alpha type (Homo sapiens) (UniProt P17252). Put plainly: Inhibition of PKCalpha. The following applies: values are per cent of control.
Series [3] is described as follows: Inhibition of CK2 at 3 uM relative to control; values are per cent of control.
Series [4] deals with Tyrosine-protein kinase CSK (Homo sapiens) (UniProt P41240). In words: Inhibition of CSK at 3 uM relative to control; values are per cent of control.
In series [5] the target is Proto-oncogene tyrosine-protein kinase Src (Homo sapiens) (UniProt P12931). In words: Inhibition of SRC at 3 uM relative to control; values are per cent of control.
Series [6] concerns the target Serine/threonine-protein kinase Chk2 (Homo sapiens) (UniProt O96017). Put plainly: Inhibition of CHK2 at 3 uM relative to control; values are per cent of control.
For series [7], the target named is Eukaryotic elongation factor 2 kinase (Homo sapiens) (UniProt O00418). Put plainly: Inhibition of EF2K at 3 uM relative to control; values are per cent of control.
The target of series [8] is Mitogen-activated protein kinase 15 (Homo sapiens) (UniProt Q8TD08). In words: Inhibition of ERK8 at 3 uM relative to control; values are per cent of control.
Series [9] concerns the target Dual specificity mitogen-activated protein kinase kinase 1 (Homo sapiens) (UniProt Q02750). Put plainly: Inhibition of MKK1 at 3 uM relative to control; values are per cent of control.
The target of series [10] is MAP kinase-interacting serine/threonine-protein kinase 2 (Homo sapiens) (UniProt Q9HBH9). In words: Inhibition of MNK2 at 3 uM relative to control; values are per cent of control.
For series [11], the target named is Serine/threonine-protein kinase Nek6 (Homo sapiens) (UniProt Q9HC98). In words: Inhibition of NEK6 at 3 uM relative to control; values are per cent of control.
Series [12] has as its target MAP kinase-activated protein kinase 5 (Homo sapiens) (UniProt Q8IW41). Put plainly: Inhibition of PRAK at 3 uM relative to control; values are per cent of control.
For series [13], the target named is Ribosomal protein S6 kinase beta-1 (Homo sapiens) (UniProt P23443). Put plainly: Inhibition of S6K1 at 3 uM relative to control; values are per cent of control.
In series [14] the target is Mitogen-activated protein kinase 1 (Homo sapiens) (UniProt P28482). In words: Inhibition of MAPK2 at 3 uM relative to control; values are per cent of control.
Series [15] addresses MAP/microtubule affinity-regulating kinase 3 (Homo sapiens) (UniProt P27448). Put plainly: Inhibition of MARK3 at 3 uM relative to control; values are per cent of control.
Series [16] concerns the target Serine/threonine-protein kinase Nek2 (Homo sapiens) (UniProt P51955). In words: Inhibition of NEK2a at 3 uM relative to control; values are per cent of control.
Series [17] has as its target SRSF protein kinase 1 (Homo sapiens) (UniProt Q96SB4). In words: Inhibition of SRPK1 at 3 uM relative to control; values are per cent of control.
Series [18] has as its target Mitogen-activated protein kinase 8 (Homo sapiens) (UniProt P45983). In words: Inhibition of JNK1a1 at 3 uM relative to control; values are per cent of control.
Series [19] concerns the target Ribosomal protein S6 kinase alpha-1 (Homo sapiens) (UniProt Q15418). In words: Inhibition of MAPKAPK1A at 3 uM relative to control; values are per cent of control.
Series [20] concerns the target Tyrosine-protein kinase ITK/TSK (Homo sapiens, UniProt Q08881). Put plainly: Inhibition of ITK.
In series [21] the target is Serine/threonine-protein kinase 26 (Homo sapiens, UniProt Q9P289). In words: Inhibition of MST4.
Series [22] has as its target Protein kinase C delta type (Homo sapiens, UniProt Q05655). Put plainly: Inhibition of PRKCD.
The next series deals with Cytochrome P450 2D6 (Homo sapiens, UniProt P10635). In words: Inhibition of human CYP2D6 by fluorescence assay. Format: ADME.
Series [23] is described as follows: Membrane permeability by PAMPA assay. The series is classed as ADME. The settings on record: read-out: permeability. In general terms: PAMPA measures passive passage across an artificial lipid membrane.
Series [24] has as its target MAP/microtubule affinity-regulating kinase 3 (Homo sapiens) (UniProt P27448). The following applies: 3 to 6 uM.
Description: Inhibition of MARK3 at 3 to 6 uM relative to control
The target of series [25] is MAP kinase-interacting serine/threonine-protein kinase 2 (Homo sapiens) (UniProt Q9HBH9). The settings on record: 3 to 6 uM.
Description: Inhibition of MNK2 at 3 to 6 uM relative to control
Series [26] has as its target RAC-beta serine/threonine-protein kinase (Homo sapiens) (UniProt P31751). The following applies: 3 to 6 uM.
Description: Inhibition of PKBbeta at 3 to 6 uM relative to control
Series [27] addresses Serine/threonine-protein kinase PLK1 (Homo sapiens, UniProt P53350). The following applies: 3 to 6 uM.
Description: Inhibition of PLK1 at 3 to 6 uM relative to control
Series [28] deals with Leucine-rich repeat serine/threonine-protein kinase 2 (Homo sapiens) (UniProt Q5S007). The following applies: 3 to 6 uM.
Description: Inhibition of LRRK2 at 3 to 6 uM relative to control

IC50, residual activity and Papp data for two compounds are collected here from ChEMBL document CHEMBL1157712, “Hit to lead account of the discovery of bisbenzamide and related ureidobenzamide inhibitors of Rho kinase” (J Med Chem, 2010).

Each structure is given as a SMILES string. Bounds are passed on as bounds.

As a reminder, the IC50 is the midpoint of a concentration-inhibition curve.

Chain of MAP/microtubule affinity-regulating kinase 3 (Homo sapiens) (P27448 whole entry, looked up): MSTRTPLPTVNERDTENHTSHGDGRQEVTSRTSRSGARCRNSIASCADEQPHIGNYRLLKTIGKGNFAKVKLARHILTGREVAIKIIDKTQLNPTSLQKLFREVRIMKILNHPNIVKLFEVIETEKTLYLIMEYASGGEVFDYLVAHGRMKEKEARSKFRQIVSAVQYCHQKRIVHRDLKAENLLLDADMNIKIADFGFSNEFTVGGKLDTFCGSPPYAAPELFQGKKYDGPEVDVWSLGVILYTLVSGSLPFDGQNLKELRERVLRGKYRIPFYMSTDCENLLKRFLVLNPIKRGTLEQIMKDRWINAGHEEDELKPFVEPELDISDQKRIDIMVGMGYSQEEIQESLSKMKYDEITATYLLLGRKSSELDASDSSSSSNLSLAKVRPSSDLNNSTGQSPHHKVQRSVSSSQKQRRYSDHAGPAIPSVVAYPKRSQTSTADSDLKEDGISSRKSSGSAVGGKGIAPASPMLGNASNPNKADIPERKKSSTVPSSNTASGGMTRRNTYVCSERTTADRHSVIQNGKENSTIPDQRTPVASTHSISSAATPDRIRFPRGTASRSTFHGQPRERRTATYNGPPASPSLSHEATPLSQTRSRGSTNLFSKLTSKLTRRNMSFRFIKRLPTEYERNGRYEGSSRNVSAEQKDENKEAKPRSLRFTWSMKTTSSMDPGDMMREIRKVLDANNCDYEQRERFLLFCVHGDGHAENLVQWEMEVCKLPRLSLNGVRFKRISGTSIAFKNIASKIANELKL
Chain of MAP kinase-interacting serine/threonine-protein kinase 2 (Homo sapiens) (Q9HBH9 whole entry, looked up): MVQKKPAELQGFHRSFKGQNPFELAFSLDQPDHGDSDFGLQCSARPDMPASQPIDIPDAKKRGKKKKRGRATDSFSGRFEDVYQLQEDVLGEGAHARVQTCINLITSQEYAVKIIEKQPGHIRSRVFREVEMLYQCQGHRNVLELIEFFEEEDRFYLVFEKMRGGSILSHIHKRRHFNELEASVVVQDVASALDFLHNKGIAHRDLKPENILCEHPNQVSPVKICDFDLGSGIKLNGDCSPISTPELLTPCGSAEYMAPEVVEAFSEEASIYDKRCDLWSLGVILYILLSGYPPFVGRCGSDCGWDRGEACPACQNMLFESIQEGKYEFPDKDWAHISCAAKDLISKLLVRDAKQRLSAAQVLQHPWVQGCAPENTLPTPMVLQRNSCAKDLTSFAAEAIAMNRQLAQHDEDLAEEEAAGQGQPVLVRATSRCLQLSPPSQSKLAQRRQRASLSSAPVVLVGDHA
Chain of RAC-beta serine/threonine-protein kinase (Homo sapiens) (P31751 whole entry): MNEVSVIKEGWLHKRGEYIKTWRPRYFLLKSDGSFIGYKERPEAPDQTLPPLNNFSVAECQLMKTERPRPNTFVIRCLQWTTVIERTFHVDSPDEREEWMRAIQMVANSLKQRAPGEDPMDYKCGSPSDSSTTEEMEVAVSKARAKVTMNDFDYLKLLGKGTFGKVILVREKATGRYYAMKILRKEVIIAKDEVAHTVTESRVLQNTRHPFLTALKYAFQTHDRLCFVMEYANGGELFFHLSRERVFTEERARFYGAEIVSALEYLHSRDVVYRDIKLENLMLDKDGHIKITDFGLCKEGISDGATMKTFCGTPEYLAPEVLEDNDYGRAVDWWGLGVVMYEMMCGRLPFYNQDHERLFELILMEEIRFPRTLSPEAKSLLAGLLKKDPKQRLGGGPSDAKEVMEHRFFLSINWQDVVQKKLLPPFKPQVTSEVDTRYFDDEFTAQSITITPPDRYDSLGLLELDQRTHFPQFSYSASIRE
Chain of Leucine-rich repeat serine/threonine-protein kinase 2 (Homo sapiens) (Q5S007 whole entry): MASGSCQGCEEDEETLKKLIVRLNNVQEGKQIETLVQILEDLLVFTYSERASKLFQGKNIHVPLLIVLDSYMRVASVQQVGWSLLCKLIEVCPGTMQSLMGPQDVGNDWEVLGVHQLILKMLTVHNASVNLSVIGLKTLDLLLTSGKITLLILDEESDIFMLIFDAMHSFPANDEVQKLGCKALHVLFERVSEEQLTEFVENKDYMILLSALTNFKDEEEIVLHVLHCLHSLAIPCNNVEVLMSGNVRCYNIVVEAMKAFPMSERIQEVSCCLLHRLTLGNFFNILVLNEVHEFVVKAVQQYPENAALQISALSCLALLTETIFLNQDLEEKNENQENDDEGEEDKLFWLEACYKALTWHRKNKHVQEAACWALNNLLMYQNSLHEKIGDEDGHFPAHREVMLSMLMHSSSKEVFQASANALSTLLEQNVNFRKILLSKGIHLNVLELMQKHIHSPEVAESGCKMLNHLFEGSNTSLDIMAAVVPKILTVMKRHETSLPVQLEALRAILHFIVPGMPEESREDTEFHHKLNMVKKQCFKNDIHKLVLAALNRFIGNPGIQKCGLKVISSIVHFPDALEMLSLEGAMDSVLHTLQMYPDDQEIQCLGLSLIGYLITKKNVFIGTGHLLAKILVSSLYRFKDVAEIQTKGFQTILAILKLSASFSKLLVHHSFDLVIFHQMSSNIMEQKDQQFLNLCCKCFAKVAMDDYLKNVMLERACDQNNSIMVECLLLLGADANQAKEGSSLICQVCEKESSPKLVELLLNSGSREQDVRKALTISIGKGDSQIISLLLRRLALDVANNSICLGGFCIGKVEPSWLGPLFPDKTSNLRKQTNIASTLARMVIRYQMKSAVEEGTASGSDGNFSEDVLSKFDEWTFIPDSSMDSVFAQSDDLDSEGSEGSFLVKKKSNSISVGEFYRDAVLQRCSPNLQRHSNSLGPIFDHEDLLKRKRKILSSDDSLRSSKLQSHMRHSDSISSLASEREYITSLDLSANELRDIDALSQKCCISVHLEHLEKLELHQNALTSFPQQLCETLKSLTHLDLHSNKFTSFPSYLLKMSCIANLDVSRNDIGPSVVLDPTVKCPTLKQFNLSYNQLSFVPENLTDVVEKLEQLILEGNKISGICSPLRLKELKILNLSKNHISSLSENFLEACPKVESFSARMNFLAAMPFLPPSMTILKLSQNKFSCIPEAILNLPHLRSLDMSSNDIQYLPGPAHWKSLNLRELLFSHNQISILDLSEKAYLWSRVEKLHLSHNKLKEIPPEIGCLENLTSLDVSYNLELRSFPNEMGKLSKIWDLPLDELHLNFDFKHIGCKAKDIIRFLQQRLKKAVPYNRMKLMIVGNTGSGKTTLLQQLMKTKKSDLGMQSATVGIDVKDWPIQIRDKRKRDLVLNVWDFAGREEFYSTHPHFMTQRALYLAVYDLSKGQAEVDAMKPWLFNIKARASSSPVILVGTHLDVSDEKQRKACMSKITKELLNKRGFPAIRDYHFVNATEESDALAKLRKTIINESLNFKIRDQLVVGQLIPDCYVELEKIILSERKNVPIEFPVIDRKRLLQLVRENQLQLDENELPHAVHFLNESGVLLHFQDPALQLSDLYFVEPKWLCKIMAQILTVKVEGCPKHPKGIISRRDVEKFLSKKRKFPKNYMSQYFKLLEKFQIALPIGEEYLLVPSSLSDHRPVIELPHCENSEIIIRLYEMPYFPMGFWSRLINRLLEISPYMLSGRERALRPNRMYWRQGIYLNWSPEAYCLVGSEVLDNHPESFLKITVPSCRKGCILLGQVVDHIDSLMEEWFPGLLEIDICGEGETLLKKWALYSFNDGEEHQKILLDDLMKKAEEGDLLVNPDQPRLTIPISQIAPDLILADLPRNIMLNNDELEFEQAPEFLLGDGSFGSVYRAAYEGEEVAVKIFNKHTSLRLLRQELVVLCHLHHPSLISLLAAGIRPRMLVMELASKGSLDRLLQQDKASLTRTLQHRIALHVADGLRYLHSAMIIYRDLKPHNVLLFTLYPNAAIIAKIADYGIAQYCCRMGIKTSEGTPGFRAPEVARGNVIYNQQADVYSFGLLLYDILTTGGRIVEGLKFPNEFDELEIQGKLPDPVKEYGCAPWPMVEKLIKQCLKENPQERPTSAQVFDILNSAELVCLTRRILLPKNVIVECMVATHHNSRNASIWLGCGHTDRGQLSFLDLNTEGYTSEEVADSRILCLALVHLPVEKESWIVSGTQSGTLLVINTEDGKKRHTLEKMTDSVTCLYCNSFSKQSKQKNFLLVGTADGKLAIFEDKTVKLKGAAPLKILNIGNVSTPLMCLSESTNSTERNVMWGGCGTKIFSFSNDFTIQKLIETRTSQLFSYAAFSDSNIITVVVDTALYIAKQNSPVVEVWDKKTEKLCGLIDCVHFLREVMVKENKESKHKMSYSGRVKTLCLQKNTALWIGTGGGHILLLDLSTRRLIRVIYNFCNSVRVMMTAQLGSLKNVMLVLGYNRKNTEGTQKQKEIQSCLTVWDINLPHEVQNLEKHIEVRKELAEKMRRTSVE
Chain of Mitogen-activated protein kinase 8 (Homo sapiens) (P45983 whole entry): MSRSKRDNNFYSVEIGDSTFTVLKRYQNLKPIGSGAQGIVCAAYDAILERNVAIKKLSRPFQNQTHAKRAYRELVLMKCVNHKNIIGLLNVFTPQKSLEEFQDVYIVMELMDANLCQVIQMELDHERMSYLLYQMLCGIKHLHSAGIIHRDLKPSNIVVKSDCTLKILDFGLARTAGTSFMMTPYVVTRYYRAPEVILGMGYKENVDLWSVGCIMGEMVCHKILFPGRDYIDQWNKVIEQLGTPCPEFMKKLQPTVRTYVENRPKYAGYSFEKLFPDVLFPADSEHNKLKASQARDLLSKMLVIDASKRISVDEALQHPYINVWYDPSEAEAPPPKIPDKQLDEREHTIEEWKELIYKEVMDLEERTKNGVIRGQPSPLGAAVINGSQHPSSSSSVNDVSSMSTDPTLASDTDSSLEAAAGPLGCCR
Chain of Mitogen-activated protein kinase 1 (Homo sapiens) (P28482 whole entry): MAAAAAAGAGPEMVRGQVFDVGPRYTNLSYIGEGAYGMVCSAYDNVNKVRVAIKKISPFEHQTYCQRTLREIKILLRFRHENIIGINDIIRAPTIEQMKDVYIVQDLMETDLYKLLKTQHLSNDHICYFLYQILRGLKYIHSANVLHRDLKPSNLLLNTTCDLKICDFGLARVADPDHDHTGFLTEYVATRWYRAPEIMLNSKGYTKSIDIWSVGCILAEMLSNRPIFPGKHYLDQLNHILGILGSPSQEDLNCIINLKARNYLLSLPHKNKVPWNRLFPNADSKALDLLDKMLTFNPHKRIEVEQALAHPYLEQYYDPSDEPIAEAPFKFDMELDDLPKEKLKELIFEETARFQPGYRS

For the compound `NC(=O)c1ccc(NC(=O)NCc2cccc(C(=O)Nc3ccc4c(c3)CNCC4)c2)cc1`, in series [1], the concentration for half-maximal inhibition (IC50) is more than 5 µM. Besides, the residual activity is 50% in series [2]; more than 50% in [3]; more than 50% in series [4]; more than 50% in [5]; more than 50% in series [6]; more than 50% in series [7]. The residual activity in series [8], in [9], in series [10], in [11], in series [12] and in series [13] was more than 50% each time. In addition, the residual activity in series [14], in [15], in series [16], in [17], in series [18] and in series [19] was more than 50% each time.
As for `COc1ccc(C(=O)NCc2cccc(C(=O)Nc3ccc4c(c3)CNCC4)c2)cc1OC`, the 50% inhibitory concentration (IC50) was more than 10 µM in series [20], more than 10 µM in series [21], more than 10 µM in [22] and more than 30 µM at Cytochrome P450 2D6. In addition, in series [23], the Papp amounted to 3.6 ×10⁻⁶ cm/s. Further, the residual activity in series [24], in [25], in series [26], in series [27] and in [28] was more than 50% each time.
